This note sets out measurements from patent US20150344466A1 (SUMITOMO CHEMICAL COMPANY, LIMITED, priority 2013, published 2015).

One experiment deals with Blattella germanica. The experiment in a line: Knockdown spray test on Blattella germanica, 0.1% w/v oil formulation (Test Example 2). Format: in vivo. As to conditions: topical, 0.25 h, active ingredient 0.1% w/v, 1.5 ml sprayed, within 15 minutes, read-out: knockdown rate of the test insects within 15 minutes. As for the experimental part:
Ten Blattella germanica (5 males and 5 females) were released in a test container (8.75 cm in diameter, 7.5 cm in height, and the bottom made of 16 mesh metallic wire) with the inner wall on which butter was applied, and the container was placed on the bottom of a test chamber (bottom: 46 cm×46 cm, height: 70 cm). From a height of 60 cm above the upper surface of the container, 1.5 ml of the test drug solution was sprayed using a spray gun (a spraying pressure of 0.42 kg/cm^2). Thirty seconds after spraying, the container was taken out from the test chamber, and after 2 minutes, 5 minutes and 15 minutes, the number of knocked-down insects was counted to obtain a knockdown rate. The knockdown rate was calculated by the following equation.
(§1) Knockdown Rate (%)=(Number of Knocked-down Insects/Number of Tested Insects)×100

For a further experiment, the system named is Culex pipiens pallens. The experiment in a line: Knockdown spray test on adult Culex pipiens pallens (Test Example 4). Format: in vivo. As to conditions: topical, 0.25 h, active ingredient 0.1% w/v, 0.5 ml sprayed, within 15 minutes, read-out: knockdown rate of the test insects within 15 minutes. As to the method: Ten adult Culex pipiens pallens were released in a polyethylene cup (bottom diameter: 10.6 cm), and the cup was covered with a 16-mesh nylon gauze. The polyethylene cup was placed on the bottom of a test chamber (bottom: 46 cm×46 cm, height: 70 cm). From a height of 30 cm above the upper surface of the polyethylene cup, 0.5 ml of the test drug solution was sprayed using a spray gun (a spraying pressure of 0.4 kg/cm^2). Immediately after spraying, the cup was taken out from the test chamber, and after 2 minutes, 5 minutes and 15 minutes, the number of knocked-down insects was counted to obtain a knockdown rate. The knockdown rate was calculated by the following equation.
as §1

Where only a bound is given, the exact number is not on record here.

As to `CSc1cccc(COCc2cc(C(=O)NCC3CCOC3)no2)c1` (centres unmarked) [(88), N-(tetrahydrofuran-3-ylmethyl)-5-(3-methylthiobenzyloxymethyl)isoxazole-3-carboxamide], the pest or weed control at 0.1 % strength in the experiment on Blattella germanica and in the experiment with Culex pipiens pallens was no less than 80% in each case.

As for `O=C(NCC1CCOC1)c1cc(COCc2ccc(F)cc2)on1` (centres unmarked) [(89), N-(tetrahydrofuran-3-ylmethyl)-5-(4-fluorobenzyloxymethyl)isoxazole-3-carboxamide], the pest or weed control at 0.1 % strength in the experiment with Blattella germanica and in the experiment with Culex pipiens pallens was no less than 80% throughout.

As to `COc1ccc(COCc2cc(C(=O)NCC3CCOC3)no2)cc1` (centres unmarked) [(99), N-(tetrahydrofuran-3-ylmethyl)-5-(4-methoxybenzyloxymethyl) isoxazole-3-carboxamide], the pest or weed control at 0.1 % strength in the experiment on Blattella germanica and in the experiment on Culex pipiens pallens was no less than 80% throughout.

`O=C(NCC1CCOC1)c1cc(COCc2ccc(Cl)s2)on1` (centres unmarked) [(109), N-(tetrahydrofuran-3-ylmethyl)-5-(2-chlorothiophen-5-ylmethoxymethyl)isoxazole-3-carboxamide]: the pest or weed control at 0.1 % strength in the experiment on Blattella germanica and in the experiment on Culex pipiens pallens was no less than 80% in each case.

As to `O=C(NCC1CCOCC1)c1cc(COCc2ccc(Cl)s2)on1` [(110), N-(tetrahydropyran-4-ylmethyl)-5-(2-chlorothiophen-5-ylmethoxymethyl)isoxazole-3-carboxamide], the pest or weed control at 0.1 % strength in the experiment on Blattella germanica and with Culex pipiens pallens was no less than 80% in each case.

For `O=C(NCC1CCOC1)c1cc(COCc2cc3ccccc3o2)on1` (centres unmarked) [(111)], the pest or weed control at 0.1 % strength in the experiment on Blattella germanica and in the experiment with Culex pipiens pallens was no less than 80% in each case.

For `O=C(NCC1CCOC1)c1cc(COCc2ccc(-c3ccccc3)o2)on1` (centres unmarked) [(124), N-(tetrahydrofuran-3-ylmethyl)-5-(5-phenylfurfuryloxymethyl)isoxazole-3-carboxamide], the pest or weed control at 0.1 % strength in the experiment on Blattella germanica and in the experiment with Culex pipiens pallens was no less than 80% each time.

`O=C(NCC1CCOC1)c1cc(COCCCc2ccccc2)on1` (centres unmarked) [(133), N-(tetrahydrofuran-3-ylmethyl)-5-(3-phenylpropoxymethyl)isoxazole-3-carboxamide]: the pest or weed control at 0.1 % strength in the experiment with Blattella germanica and with Culex pipiens pallens was no less than 80% each time.

`O=C(NCC1CCOCC1)c1cc(COCCCc2ccccc2)on1` [(134), N-(tetrahydropyran-4-ylmethyl)-5-(3-phenylpropoxymethyl)isoxazole-3-carboxamide]: the pest or weed control at 0.1 % strength in the experiment on Blattella germanica and with Culex pipiens pallens was no less than 80% throughout.

`CC(F)c1c(C(=O)NCC2CCOC2)noc1COCc1ccccc1` (centres unmarked) [(172), N-(tetrahydrofuran-3-ylmethyl)-[5-benzyloxymethyl-4-(1-fluoroethyl)]isoxazole-3-carboxamide]: the pest or weed control at 0.1 % strength in the experiment on Blattella germanica and with Culex pipiens pallens was no less than 80% each time.

For `O=C(NCC1CCOC1)c1noc(COCc2ccccc2)c1CO` (centres unmarked) [(174), N-(tetrahydrofuran-3-ylmethyl)-(5-benzyloxymethyl-4-hydroxymethyl)isoxazole-3-carboxamide], the pest or weed control at 0.1 % strength in the experiment with Blattella germanica and with Culex pipiens pallens was no less than 80% in each case.

As to `CC(O)c1c(C(=O)NCC2CCOC2)noc1COCc1ccccc1` (centres unmarked) [(175), N-(tetrahydrofuran-3-ylmethyl)-[5-benzyloxymethyl-4-(1-hydroxyethyl)]isoxazole-3-carboxamide], the pest or weed control at 0.1 % strength in the experiment with Blattella germanica and in the experiment with Culex pipiens pallens was no less than 80% throughout.

With `O=C(NCC1CCOCC1)c1cc(COc2ccccc2Cl)on1` [(177), N-(tetrahydropyran-4-ylmethyl)-5-(2-chlorophenoxymethyl)isoxazole-3-carboxamide], the pest or weed control at 0.1 % strength in the experiment with Blattella germanica and with Culex pipiens pallens was no less than 80% each time.

Consider `O=C(NCC1CCOC1)c1cc(COc2cccc(Cl)c2)on1` (centres unmarked) [(178), N-(tetrahydrofuran-3-ylmethyl)-5-(3-chlorophenoxymethyl)isoxazole-3-carboxamide], for which the pest or weed control at 0.1 % strength in the experiment on Blattella germanica and in the experiment with Culex pipiens pallens was no less than 80% in each case.

As for `O=C(NCC1CCOC1)c1cc(COc2ccc(Cl)cc2)on1` (centres unmarked) [(180)], the pest or weed control at 0.1 % strength in the experiment on Blattella germanica and with Culex pipiens pallens was no less than 80% each time.

As for `O=C(NCC1CCOC1)c1cc(COc2ccc(F)cc2)on1` (centres unmarked) [(184)], the pest or weed control at 0.1 % strength with Blattella germanica and in the experiment with Culex pipiens pallens was no less than 80% throughout.

In the case of `O=C(NCC1CCOC1)c1cc(COc2ccc(Br)cc2)on1` (centres unmarked) [(186), N-(tetrahydrofuran-3-ylmethyl)-5-(4-bromophenoxymethyl)isoxazole-3-carboxamide], the pest or weed control at 0.1 % strength in the experiment with Blattella germanica and with Culex pipiens pallens was no less than 80% throughout.

Take `CC(O)c1c(C(=O)NCC2CCOC2)noc1COCc1ccc2ccccc2c1` (centres unmarked) [(210), N-(tetrahydrofuran-3-ylmethyl)-1-hydroxyethyl-5-(2-naphthylmethoxymethyl)isoxazole-3-carboxamide]: the pest or weed control at 0.1 % strength in the experiment with Blattella germanica and in the experiment on Culex pipiens pallens was no less than 80% throughout.

`O=C(NCC1CCOC1)c1noc(COCc2ccc3ccccc3c2)c1CF` (centres unmarked) [(211), N-(tetrahydrofuran-3-ylmethyl)-4-fluoromethyl-5-(2-naphthylmethoxymethyl)isoxazole-3-carboxamide]: the pest or weed control at 0.1 % strength in the experiment on Blattella germanica and in the experiment with Culex pipiens pallens was no less than 80% each time.

`Cc1c(C(=O)NCC2CCOC2)noc1COCc1cccc(F)c1` (centres unmarked) [(217), N-(tetrahydrofuran-3-ylmethyl)-5-(3-fluorobenzyloxymethyl)-4-methylisoxazole-3-carboxamide]: the pest or weed control at 0.1 % strength in the experiment with Blattella germanica and with Culex pipiens pallens was no less than 80% throughout.

Regarding `Cc1c(C(=O)NCC2CCOC2)noc1CCCc1ccccc1` (centres unmarked) [(221), N-(tetrahydrofuran-3-ylmethyl)-4-methyl-5-(3-phenylpropyl)isoxazole-3-carboxamide], the pest or weed control at 0.1 % strength in the experiment with Blattella germanica and in the experiment with Culex pipiens pallens was no less than 80% throughout.

As for `Cc1ccccc1COCc1cc(C(=O)NCC2CCOC2)no1` (centres unmarked) [(226)], the pest or weed control at 0.1 % strength in the experiment on Blattella germanica and in the experiment with Culex pipiens pallens was no less than 80% each time.

`O=C(NCC1CCOC1)c1cc(CCCc2ccc3ccccc3c2)on1` (centres unmarked) [(228), N-(tetrahydrofuran-3-ylmethyl)-5-[3-(2-naphthyl)propyl]isoxazole-3-carboxamide]: the pest or weed control at 0.1 % strength in the experiment on Blattella germanica and in the experiment with Culex pipiens pallens was no less than 80% throughout.

In the case of `O=C(NCC1COCCO1)c1cc(CCCc2ccc3ccccc3c2)on1` (centres unmarked) [(230), N-(1,4-dioxan-2-ylmethyl)-5-[3-(2-naphthyl)propyl]isoxazole-3-carboxamide], the pest or weed control at 0.1 % strength in the experiment with Blattella germanica and in the experiment on Culex pipiens pallens was no less than 80% in each case.

Regarding `O=C(NCC1CCOC1)c1cc(COc2ccc3c(c2)CCCC3)on1` (centres unmarked) [(239), N-(tetrahydrofuran-3-ylmethyl)-5-(5,6,7,8-tetrahydronaphthalen-2-yl)oxymethylisoxazole-3-carboxamide], the pest or weed control at 0.1 % strength in the experiment on Blattella germanica and with Culex pipiens pallens was no less than 80% each time.

On to `O=C(NCC1CCOC1)c1cc(CSCc2ccc3ccccc3c2)on1` (centres unmarked) [(253)], for which the pest or weed control at 0.1 % strength in the experiment with Blattella germanica and in the experiment on Culex pipiens pallens was no less than 80% throughout.

On to `O=C(NCC1CCOC1)c1noc(COCc2ccc3ccccc3c2)c1F` (centres unmarked) [(255), N-(tetrahydrofuran-3-ylmethyl)-5-(2-naphthylmethoxymethyl)-4-fluoroisoxazole-3-carboxamide], for which the pest or weed control at 0.1 % strength in the experiment with Blattella germanica and with Culex pipiens pallens was no less than 80% in each case.

Take `O=C(NCC1CCOC1)c1cc(COCc2cc3ccccc3cc2F)on1` (centres unmarked) [(257), N-(tetrahydrofuran-3-ylmethyl)-5-(3-fluoro-2-naphthylmethoxymethyl)isoxazole-3-carboxamide]: the pest or weed control at 0.1 % strength in the experiment on Blattella germanica and in the experiment on Culex pipiens pallens was no less than 80% throughout.

`O=C(NCC1CCOC1)c1cc(COCc2ccc(F)c(Cl)c2)on1` (centres unmarked) [(261), N-(tetrahydrofuran-3-ylmethyl)-5-(3-chloro-4-fluorobenzyloxymethyl)isoxazole-3-carboxamide]: the pest or weed control at 0.1 % strength in the experiment with Blattella germanica and in the experiment on Culex pipiens pallens was no less than 80% each time.

In the case of `O=C(NCC1CCOC1)c1cc(COCc2ccc(F)c(F)c2)on1` (centres unmarked) [(263), N-(tetrahydrofuran-3-ylmethyl)-5-(3,4-difluorobenzyloxymethyl)isoxazole-3-carboxamide], the pest or weed control at 0.1 % strength in the experiment on Blattella germanica and with Culex pipiens pallens was no less than 80% throughout.

Regarding `O=C(NCC1CCOC1)c1cc(COCc2ccccc2Br)on1` (centres unmarked) [(265), N-(tetrahydrofuran-3-ylmethyl)-5-(2-bromobenzyloxymethyl)isoxazole-3-carboxamide], the pest or weed control at 0.1 % strength in the experiment with Blattella germanica and in the experiment with Culex pipiens pallens was no less than 80% in each case.
